Test results as given in patent US7101831B2, “Compositions of material, especially lubricants and pressure transmitting means, the production and use thereof” (Fuchs Petrolub AG, priority 2000, dated 2006).

Experiments:
Format in all cases: physicochemical
[1] = ROBOT oxidation stability test; conditions: 35 g of lubricant; 6.25 bar of oxygen; T = 120° C., without catalyst
[2] = Kinematic viscosity (KV) of the esters compared to methyl oleate
Source text: (§1) Example 27 illustrates the properties of the methyl formyloxystearate and methyl [2,2-dimethylpropionyloxy]-stearate esters prepared according to examples 1 and 4 compared to pure methyl oleate (base raw material).

Viscosity index (VI) = test: Viscosity index (VI)
Source text: as §1

Pour point = test: Pour point
Source text: as §1

Density = test: Density
Source text: as §1

ROBOT [1]	KV (40° C.) [2]	KV (100° C.) [2]	VI (Viscosity index (VI))	Pour point (Pour point)	Density (15° C.) (Density)	Compound
10 min	4.5 mm^2/s	1.7 mm^2/s	178	−18 °C	–	CCCCCCCC/C=C\CCCCCCCC(=O)OC [Methyl oleate, methyl oleate, reference compound]
27 min	13.1 mm^2/s	3.4 mm^2/s	139	−9 °C	902.73 kg/m^3	CCCCCCCCCC(CCCCCCCC(=O)OC)OC(=O)C(C)(C)C (centres unmarked) [methyl 9-(10)-[2,2′-dimethylpropionyloxy]stearate]
165 min	12.0 mm^2/s	3.1 mm^2/s	120	−18 °C	933.65 kg/m^3	methyl 9(10)-formyloxystearate [Methyl formyloxystearate]
